The results in this text go back to patent US6646009B2, “N-(aryl)-2-arylethenesulfonamides and therapeutic uses thereof” (Temple University — Of Commonwealth System of Higher …, priority 2001, dated 2003).

Assay [1] concerns SK-ov-3. As to the kind of experiment: GI50 growth inhibition, SK-ov-3. The format is cell-based. Conditions: Homo sapiens; SK-ov-3, Ovarian. The procedure:
(§1) The effect of the N-(aryl)-2-arylethenesulfonamides on normal fibroblasts and on tumor cells was determined by the assay described by Latham et al, Oncogene 12:827-837 (1996). Normal diploid lung human fibroblasts (HFL-1) or tumor cells (prostate, colorectal, breast, glial, pancreatic ovarian or leukemic) were plated in 6-well dishes at a cell density of 1.0×10^5 cells per 35-mm^2 well. The plated cells were treated 24 hours later with various concentrations of N-(aryl)-2-arylethenesulfonamide dissolved in dimethyl sulfoxide (DMSO). The total number of viable cells was determined 96 hours later by trypsinizing the wells and counting the number of viable cells, as determined by trypan blue exclusion, using a hemacytometer. Each compound tested (Exs. 1-17) inhibited cell proliferation when tested at a concentration of 30 micromolar. […] Normal HFL cells were treated with the same compounds under the same conditions of concentration and time.
(§2) A dose response curve was plotted for the tumor growth inhibitory effect of (E)-4-methoxystyryl-N-4-fluorophenyl sulfonamide on the estrogen-unresponsive breast cell line BT-20 (FIG. 1). The GI50 (the concentration of drug resulting in 50% net loss of growth inhibition) was determined as 10 μM. […] The (E)-4-methoxystyryl-N-4-fluorophenyl sulfonamide GI50 for the same compound against the cell lines listed in Table 7 was determined in the same manner.

Assay [2] concerns normal fibroblast line HFL-1. As to the kind of experiment: GI50 growth inhibition, HFL-1. Type of assay: cell-based. Conditions: Homo sapiens, HFL1; HFL-1, Normal diploid lung. How it is done:
as §1, §2

The subject of assay [3] is SK-br-3. As to the kind of experiment: GI50 growth inhibition, SK-br-3. Type of assay: cell-based. Conditions: Homo sapiens; SK-br-3, Breast. How it is done: as §1, §2
Assay [4] deals with HCT-116. As to the kind of experiment: GI50 growth inhibition, HCT-116. Type of assay: cell-based. Conditions: Homo sapiens; HCT-116, Colo-rectal. The procedure:
as §1, §2

In assay [5] the test system is HFL-1 cells. As to the kind of experiment: Induction of apoptosis: PARP cleavage Western blot, HFL-1. To be noted: 20 μM, 96 hours. Type of assay: cell-based, human. The text has this:
(§3) The caspases and the ICE-family proteases are cysteine proteases which are activated during apoptosis (Patel et al., FASEB 10:587-597, 1996). The cleavage of poly(ADP-ribose) polymerase (PARP), which is a target of caspase-3, apopain, and several other activated proteases, is a widely used and accepted marker for apoptosis (Nicholson et al., Nature 376(6533):37-43, 1995; Lippke et al., J. Biol. Chemistry 271:1825, 1996). For this assay, BT20 cells, an estrogen receptor negative breast carcinoma, and HFL-1 cells, normal lung fibroblasts, were treated with either (E)-4-methoxystyryl-N-4-fluorophenyl sulfonamide at a final concentration of 20 μM or dimethyl sulfoxide (DMSO) for 96 hours. The cells were then lysed in RIPA buffer and 100 μg of total cellular protein from each sample was resolved on a 10% SDS-polyacrylamide gel. The proteins were then Western blotted onto PROTRAN filter paper (S/S) and the filter was then probed with antibody (Boehringer Mannheim) specific for PARP. This antibody recognizes both the 116 kDa full length PARP and the 83 kDa cleaved product. […] The BT20 cells treated with DMSO for the same amount of time also had no activation of the apoptotic pathway.

The test system of assay [6] is DU145. As to the kind of experiment: GI50 growth inhibition, DU145. The format is cell-based. The procedure:
as §1, §2

Assay [7] has as its system BT20 cells. As to the kind of experiment: Induction of apoptosis: PARP cleavage Western blot, BT20. The format is cell-based. Conditions: 20 μM, 96 hours.
Text: as §3

The test system of assay [8] is PC-3. As to the kind of experiment: GI50 growth inhibition, PC-3. Type of assay: cell-based. To be noted: Homo sapiens; PC-3, Prostate. The procedure: as §1, §2
Assay [9] deals with estrogen-unresponsive breast cell line BT-20. As to the kind of experiment: GI50 growth inhibition, BT-20. The format is cell-based. The procedure:
as §1, §2

The test system of assay [10] is LNCAP. As to the kind of experiment: GI50 growth inhibition, LNCAP. To be noted: Homo sapiens, Prostate. Type of assay: cell-based. The procedure: as §1, §2
The test system of assay [11] is CEM. As to the kind of experiment: GI50 growth inhibition, CEM. The format is cell-based. Conditions: Homo sapiens, CCRF-CEM, Leukemic. The procedure:
as §1, §2

The test system of assay [12] is COLO-320. As to the kind of experiment: GI50 growth inhibition, COLO-320. Type of assay: cell-based. To be noted: Homo sapiens; COLO-320, Colo-rectal. The procedure:
as §1, §2

The test system of assay [13] is U87. As to the kind of experiment: GI50 growth inhibition, U87. Type of assay: cell-based. To be noted: Homo sapiens, U-87 MG; U87, Glioblastoma. The procedure:
as §1, §2

Assay [14] relates to DLD-1. As to the kind of experiment: GI50 growth inhibition, DLD-1. The format is cell-based. The procedure:
as §1, §2

For assay [15], the system named is MIA-PaCa-2. As to the kind of experiment: GI50 growth inhibition, MIA-PaCa-2. Type of assay: cell-based. To be noted: Homo sapiens; MIA-PaCa-2, Pancreatic. How it is done:
as §1, §2

For assay [16], the system named is H157. As to the kind of experiment: GI50 growth inhibition, H157. Type of assay: cell-based. Conditions: result in words. How it is done:
The effect of the N-(aryl)-2-arylethenesulfonamides on normal fibroblasts and on tumor cells was determined by the assay described by Latham et al, Oncogene 12:827-837 (1996). Normal diploid lung human fibroblasts (HFL-1) or tumor cells (prostate, colorectal, breast, glial, pancreatic ovarian or leukemic) were plated in 6-well dishes at a cell density of 1.0×10^5 cells per 35-mm^2 well. The plated cells were treated 24 hours later with various concentrations of N-(aryl)-2-arylethenesulfonamide dissolved in dimethyl sulfoxide (DMSO). The total number of viable cells was determined 96 hours later by trypsinizing the wells and counting the number of viable cells, as determined by trypan blue exclusion, using a hemacytometer. Each compound tested (Exs. 1-17) inhibited cell proliferation when tested at a concentration of 30 micromolar. […]
A dose response curve was plotted for the tumor growth inhibitory effect of (E)-4-methoxystyryl-N-4-fluorophenyl sulfonamide on the estrogen-unresponsive breast cell line BT-20 (FIG. 1). […] The (E)-4-methoxystyryl-N-4-fluorophenyl sulfonamide GI50 for the same compound against the cell lines listed in Table 7 was determined in the same manner.
The GI50 of (E)-4-methoxystyryl-N-3-fluoro-4-methoxyphenyl sulfonamide was determined for the following cell lines: BT20, DU145, H157 and DLD-1.

Structures are written as SMILES.

As for `COc1ccc(/C=C/S(=O)(=O)Nc2ccc(F)cc2)cc1` [Example 4, (E)-4-methoxystyryl-N-4-fluorophenyl sulfonamide], the GI50 in assay [1] is 15 µM; in [2], 50 µM; in [3] it was 30 µM; in assay [4], 20 µM; in assay [6] (Homo sapiens, DU-145, DU145, Prostate), 10 µM; in assay [8] it was 20 µM. Further, the GI50 is 10 µM in assay [9] (Homo sapiens, BT-20 (BT2O), Breast); 20 µM in assay [10]; 30 µM in [11]; 5 µM in [12]; 20 µM in [13]; 15 µM in assay [14] (Homo sapiens, DLD-1, Colo-rectal). Also, it took 7 µM to inhibit growth in assay [15] by half (GI50). Moreover, the “PARP cleavage (83 kDa product, marker for apoptosis)” value in assay [5] was “no cleavage of the full length PARP”; in assay [7] it was “presence of the 83 kDa PARP cleavage product”.
With `COc1ccc(/C=C/S(=O)(=O)Nc2ccc(OC)c(F)c2)cc1` [Example 5, (E)-4-methoxystyryl-N-3-fluoro4-methoxyphenyl sulfonamide], the “GI50 compared with (E)-4-methoxystyryl-N-4-fluorophenyl sulfonamide” value is recorded as “in essential agreement” in [6] (DU145, result in words); “in essential agreement” in assay [9] (BT20, result in words); “in essential agreement” in assay [14] (DLD-1, result in words); “in essential agreement” in assay [16].

As a reminder, the GI50 is the concentration giving 50% growth inhibition. High values mean less potent growth inhibition, low ones more potent growth inhibition.
